Results taken from US9080186B2, “Compositions comprising cationic amphiphiles and colipids for delivering therapeutic molecules” (Agave Pharma, Incorporated, priority 2009, dated 2015).

Experiment: siRNA remaining in water (supernatant OD260) after precipitation with cationic lipid
Format: physicochemical
Parameters: unit not given here
Protocol: A nucleic acid/cationic lipid salt was prepared by the following method. Two mg of the cationic lipid was dissolved in 0.1 mL of chloroform in a clean, dry borosilicate clear glass vial and the chloroform was evaporated off by blowing nitrogen gas into the vial and any remaining trace amount of chloroform was removed by drying in vacuo in a vacuum chamber. The vial was removed from the vacuum chamber and 0.1 mL of ethanol was added. The vial was sealed with TEFLON®-lined cap and tightly wrapped with a sealing tape. The vial was vortexed or/and sonicated to dissolve the cationic lipid.
The solution of the cationic lipid in ethanol was added to an aqueous solution containing 1 mg siRNA. The addition of the cationic lipid to the siRNA solution caused immediate aggregation forming a water-insoluble cationic lipid/nucleic acid salt comprised of the cationic lipid and siRNA.
The water-insoluble cationic lipid/nucleic acid salt in a tube was then centrifuged in an Eppendorf microcentrifuge at maximum speed for 15 minutes to form a pellet. The supernatant after each centrifugation were collected and the amount siRNA in the supernatant was measured with OD260.
Table 2 is the summary of measurement of the ratio of siRNA/lipid which rendering siRNA insoluble in water.

CC(C)CCC[C@@H](C)[C@H]1CC[C@H]2[C@@H]3CC=C4C[C@@H](OC(=O)NCCN(C)C)CC[C@]4(C)[C@H]3CC[C@]12C.Cl [DC-Chol, cholesteryl 3β-N-(dimethylaminoethyl)carbamate hydrochloride]
siRNA remaining in water (siRNA/lipids ratio 0.5): 72
siRNA remaining in water (siRNA/lipids ratio 0.75): 63
siRNA remaining in water (siRNA/lipids ratio 1): 57
siRNA remaining in water (siRNA/lipids ratio 1.5): 35
siRNA remaining in water (siRNA/lipids ratio 2): 13

CCCCCCCC/C=C\CCCCCCCC(=O)OCC(C[N+](C)(C)C)OC(=O)CCCCCCC/C=C\CCCCCCCC.[Cl-] (stereo not drawn) [DOTAP, N-(l-(2,3-dioleoyloxy)propyl)-N,N,N-trimethylammonium chloride]
siRNA remaining in water (siRNA/lipids ratio 0.5): 63
siRNA remaining in water (siRNA/lipids ratio 0.75): 55
siRNA remaining in water (siRNA/lipids ratio 1): 45
siRNA remaining in water (siRNA/lipids ratio 1.5): 28
siRNA remaining in water (siRNA/lipids ratio 2): 10

CCCCCCCC/C=C\CCCCCCCCOCC(C[N+](C)(C)C)OCCCCCCCC/C=C\CCCCCCCC.[Cl-] (stereo not drawn) [DOTMA, N-[1-(2,3-dioleyloxy)propyl]-N,N,N-trimethylammonium chloride]
siRNA remaining in water (siRNA/lipids ratio 0.5): 61
siRNA remaining in water (siRNA/lipids ratio 0.75): 57
siRNA remaining in water (siRNA/lipids ratio 1): 46
siRNA remaining in water (siRNA/lipids ratio 1.5): 29
siRNA remaining in water (siRNA/lipids ratio 2): 6
